Experimental data published in patent US5382670A, “Platelet activating factor antagonists” (priority 1993, dated 1995).
Counter-ions that a name gives are not always drawn. Like-named read-outs stand apart in the source and are kept apart here.

Molecular target: PAF receptor (Oryctolagus cuniculus, UniProt G1TEI7)
Assay: PAF receptor binding assay: inhibition of specific [3H]C18-PAF binding to rabbit platelet membranes
Settings: 0.6 nM [3H]C18-PAF, 60 min, 22-23 °C, Ki from IC50 (Cheng and Prusoff)
In short: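 Rabbit platelet membranes (10 μg protein) incubated 60 min at 22-23 °C with 0.6 nM [3H]C18-PAF in TME buffer pH 7.0 plus 0.25% BSA; nonspecific binding with 1 μM PAF. Filtered bound radioactivity counted; IC50 by point-to-point evaluation from ≥4 doses in triplicate, Ki by Cheng-Prusoff.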

[1] = read-out: Ki (PAF Receptor Binding Activity)

PAF receptor, sequence (G1TEI7 1-342): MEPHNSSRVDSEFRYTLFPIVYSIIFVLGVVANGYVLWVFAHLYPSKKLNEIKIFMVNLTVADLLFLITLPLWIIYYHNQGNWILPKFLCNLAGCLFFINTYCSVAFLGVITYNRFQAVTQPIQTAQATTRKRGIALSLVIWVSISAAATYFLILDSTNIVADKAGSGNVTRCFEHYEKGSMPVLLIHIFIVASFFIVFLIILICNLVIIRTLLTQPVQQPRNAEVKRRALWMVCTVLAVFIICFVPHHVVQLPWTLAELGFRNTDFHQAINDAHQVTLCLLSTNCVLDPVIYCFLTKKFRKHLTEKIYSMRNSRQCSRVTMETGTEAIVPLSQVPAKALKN

SMILES | Ki [1] | Ki (Ki (PAF Receptor Binding Activity))
CN(C)C(=O)n1cc(C(=O)C2CSC(c3cccnc3)N2C(=O)C(F)(F)F)c2ccc(OCc3ccccc3)cc21 (single isomer, unassigned; isomer 1) [Example 108, 1-dimethylcarbamoyl-3-[2-(3-pyridinyl)-3-trifluoroacetylthiazolid-4-oyl]-6-phenylmethoxyindole, isomer 1] | 250 nM | 
O=C(c1ccccc1)c1cccc2c1ccn2C(=O)C1CSC(c2cccnc2)N1 (stereo not shown) [Example 7, 1-[2-(3-pyridinyl)thiazolid-4-oyl]-4-benzoylindole dihydrochloride] | 12 nM | 
Cn1cc(C(=O)C2CSC(c3cccnc3)N2)c2ccccc21 (stereo not shown) [Example 22, 1-methyl-3-[2-3-pyridinyl)thiazolid-4-oyl]indole dihydrochloride] |  | 13 nM
Cc1c(C(=O)C2CSC(c3cccnc3)N2)c2ccccc2n1C(=O)N1CCOCC1 (stereo not shown) [Example 64, 1-(1-morpholinocarbonyl)-2-methyl-3-[2-(3-pyridinyl)thiazolid-4-oyl]indole] | 88 nM | 
